System: 186277-243-T-J2-PDC complex spheroids, viability
Test: Anticancer human tumor 186277-243-T-J2-PDC patient-derived colon adenocarcinoma cell line growth inhibition [RAS]
Details: for IC50: curve of first compound; for viability, T/C: stronger effect = lower value; active = viability on the fitted dose curve at most 10% of control; inactive = the rest
Procedure, shortened: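 Tumour cells grown as complex spheroids with HUVEC endothelial cells and mesenchymal stem cells, treated with RAS pathway inhibitor combinations. Each agent spans half-log steps from near clinical Cmax, or 10 microM where Cmax is unknown.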

[1] = second compound 0.000949 µM, first compound 0.0316 µM
[2] = second compound 0.000949 µM, first compound 0.1 µM
[3] = second compound 0.000949 µM, first compound 0.316 µM
[4] = second compound 0.000949 µM, first compound 1 µM
[5] = second compound 0.000949 µM, first compound 3.16 µM
[6] = second compound 0.000949 µM, first compound 10 µM
[7] = second compound 0.003 µM, first compound 0.0316 µM
[8] = second compound 0.003 µM, first compound 0.1 µM
[9] = second compound 0.003 µM, first compound 0.316 µM
[10] = second compound 0.003 µM, first compound 1 µM
[11] = second compound 0.003 µM, first compound 3.16 µM
[12] = second compound 0.003 µM, first compound 10 µM
[13] = second compound 0.00949 µM, first compound 0.0316 µM
[14] = second compound 0.00949 µM, first compound 0.1 µM
[15] = second compound 0.00949 µM, first compound 0.316 µM
[16] = second compound 0.00949 µM, first compound 1 µM
[17] = second compound 0.00949 µM, first compound 3.16 µM
[18] = second compound 0.00949 µM, first compound 10 µM
[19] = second compound 0.03 µM, first compound 0.0316 µM
[20] = second compound 0.03 µM, first compound 0.1 µM
[21] = second compound 0.03 µM, first compound 0.316 µM
[22] = second compound 0.03 µM, first compound 1 µM
[23] = second compound 0.03 µM, first compound 3.16 µM
[24] = second compound 0.03 µM, first compound 10 µM
[25] = second compound 0.0949 µM, first compound 0.0316 µM
[26] = second compound 0.0949 µM, first compound 0.1 µM
[27] = second compound 0.0949 µM, first compound 0.316 µM
[28] = second compound 0.0949 µM, first compound 1 µM
[29] = second compound 0.0949 µM, first compound 3.16 µM
[30] = second compound 0.0949 µM, first compound 10 µM
[31] = second compound 0.3 µM, first compound 0.0316 µM
[32] = second compound 0.3 µM, first compound 0.1 µM
[33] = second compound 0.3 µM, first compound 0.316 µM
[34] = second compound 0.3 µM, first compound 1 µM
[35] = second compound 0.3 µM, first compound 3.16 µM
[36] = second compound 0.3 µM, first compound 10 µM
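Note: spheroids exposed to compounds for 7 days before viability read.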

CC1(O)CCCC1n1c(=O)c(C(F)F)cc2cnc(NC3CCN(S(C)(=O)=O)CC3)nc21 (stereo unspecified) + CCn1c(-c2cc(N3CCN(C)CC3)cnc2C(C)OC)c2c3cc(ccc31)-c1csc(n1)CC(NC(=O)C1CC1C)C(=O)N1CCCC(N1)C(=O)OCC(C)(C)C2
1080 nM: IC50 (second compound 0.003 µM)
active: viability, T/C [6] 1.35% | viability, T/C [12] 0.72% | viability, T/C [18] 0.4% | viability, T/C [22] 9.98% | viability, T/C [23] 7.39% | viability, T/C [24] 0.34% | viability, T/C [25] 9.76% | viability, T/C [26] 7.17% | viability, T/C [27] 6.71% | viability, T/C [28] 6.53% | viability, T/C [29] 5.94% | viability, T/C [30] 0.31% | viability, T/C [31] 6.48% | viability, T/C [32] 6.07% | viability, T/C [33] 5.61% | viability, T/C [34] 5.93% | viability, T/C [35] 5.05% | viability, T/C [36] 0.34%
< 31.6 nM: IC50 (second compound 0.00949 µM) | IC50 (second compound 0.03 µM) | IC50 (second compound 0.0949 µM) | IC50 (second compound 0.3 µM)
inactive: viability, T/C [1] 124% | viability, T/C [2] 104% | viability, T/C [3] 108% | viability, T/C [4] 86.7% | viability, T/C [5] 61.8% | viability, T/C [7] 116% | viability, T/C [8] 107% | viability, T/C [9] 60.8% | viability, T/C [10] 55.4% | viability, T/C [11] 36.9% | viability, T/C [13] 47.4% | viability, T/C [14] 41% | viability, T/C [15] 23.6% | viability, T/C [16] 20.1% | viability, T/C [17] 14% | viability, T/C [19] 15.2% | viability, T/C [20] 11.5% | viability, T/C [21] 10.6%
3790 nM: IC50 (second compound 0.000949 µM)

CCC(CC)c1cc(NC2CCC(N)C2)n2nccc2n1 (stereo unspecified) + CCn1c(-c2cc(N3CCN(C)CC3)cnc2C(C)OC)c2c3cc(ccc31)-c1csc(n1)CC(NC(=O)C1CC1C)C(=O)N1CCCC(N1)C(=O)OCC(C)(C)C2
active: viability, T/C [5] 4.75% | viability, T/C [6] 0.22% | viability, T/C [11] 3.89% | viability, T/C [12] 0.17% | viability, T/C [17] 3.19% | viability, T/C [18] 0.17% | viability, T/C [22] 9.82% | viability, T/C [23] 3.01% | viability, T/C [24] 0.19% | viability, T/C [26] 8.25% | viability, T/C [27] 9.17% | viability, T/C [28] 5.58% | viability, T/C [29] 2.44% | viability, T/C [30] 0.29% | viability, T/C [31] 7.09% | viability, T/C [32] 6.68% | viability, T/C [33] 6.45% | viability, T/C [34] 4.66% | viability, T/C [35] 2.73% | viability, T/C [36] 0.31%
inactive: viability, T/C [1] 123% | viability, T/C [2] 115% | viability, T/C [3] 109% | viability, T/C [4] 101% | viability, T/C [7] 99.4% | viability, T/C [8] 100% | viability, T/C [9] 107% | viability, T/C [10] 91.9% | viability, T/C [13] 55.5% | viability, T/C [14] 54.6% | viability, T/C [15] 57.5% | viability, T/C [16] 33% | viability, T/C [19] 15.8% | viability, T/C [20] 17% | viability, T/C [21] 18.1% | viability, T/C [25] 8.36%
1730 nM: IC50 (second compound 0.003 µM)
419 nM: IC50 (second compound 0.00949 µM)
< 31.6 nM: IC50 (second compound 0.03 µM) | IC50 (second compound 0.0949 µM) | IC50 (second compound 0.3 µM)
1840 nM: IC50 (second compound 0.000949 µM)

CCN1CCN(Cc2ccc(Nc3ncc(F)c(-c4cc(F)c5nc(C)n(C(C)C)c5c4)n3)nc2)CC1 + CCn1c(-c2cc(N3CCN(C)CC3)cnc2C(C)OC)c2c3cc(ccc31)-c1csc(n1)CC(NC(=O)C1CC1C)C(=O)N1CCCC(N1)C(=O)OCC(C)(C)C2
> 1000 nM: IC50 (second compound 0.000949 µM)
inactive: viability, T/C (second compound 0.000949 µM, first compound 0.00316 µM) 102% | viability, T/C (second compound 0.000949 µM, first compound 0.01 µM) 121% | viability, T/C [1] 140% | viability, T/C [2] 149% | viability, T/C [3] 121% | viability, T/C [4] 76.6% | viability, T/C (second compound 0.003 µM, first compound 0.00316 µM) 105% | viability, T/C (second compound 0.003 µM, first compound 0.01 µM) 111% | viability, T/C [7] 107% | viability, T/C [8] 86.1% | viability, T/C [9] 53% | viability, T/C [10] 32% | viability, T/C (second compound 0.00949 µM, first compound 0.00316 µM) 50.8% | viability, T/C (second compound 0.00949 µM, first compound 0.01 µM) 43.8% | viability, T/C [13] 32.7% | viability, T/C [14] 22.1% | viability, T/C [15] 16.8% | viability, T/C [16] 12.3% | viability, T/C (second compound 0.03 µM, first compound 0.00316 µM) 14.5% | viability, T/C (second compound 0.03 µM, first compound 0.01 µM) 13.7% | viability, T/C [19] 11.9% | viability, T/C [20] 9.88%
3.65 nM: IC50 (second compound 0.00949 µM)
< 3.16 nM: IC50 (second compound 0.03 µM) | IC50 (second compound 0.0949 µM) | IC50 (second compound 0.3 µM)
357 nM: IC50 (second compound 0.003 µM)
active: viability, T/C [21] 9.46% | viability, T/C [22] 8.2% | viability, T/C (second compound 0.0949 µM, first compound 0.00316 µM) 7.73% | viability, T/C (second compound 0.0949 µM, first compound 0.01 µM) 7.37% | viability, T/C [25] 6.72% | viability, T/C [26] 6.74% | viability, T/C [27] 7.64% | viability, T/C [28] 7% | viability, T/C (second compound 0.3 µM, first compound 0.00316 µM) 6.2% | viability, T/C (second compound 0.3 µM, first compound 0.01 µM) 5.86% | viability, T/C [31] 6.14% | viability, T/C [32] 6.13% | viability, T/C [33] 6.52% | viability, T/C [34] 6.25%

Source: PubChem BioAssay AID2060908 (Molecular Pharmacology Branch, DTP, NCI, 2025)
